In ChEMBL document CHEMBL1152216, “Pyrazino[1,2-b]isoquinolines: synthesis and study of their cytostatic and cytotoxic properties” (2008):
The source made the active and inactive calls. The rule behind the calls is not given here.

Key:
[1] = system: MDA-MB-231; assay: Growth inhibition of human MDA-MB-231 cells after 48 hrs by MTT assay; type: functional; details: MDA-MB-231, 48 h
[2] = system: HT-29; assay: Growth inhibition of human HT-29 cells after 48 hrs by MTT assay; type: functional; details: HT-29, 48 h
[3] = system: A549; assay: Growth inhibition of human A549 cells after 48 hrs by MTT assay; type: functional; details: A549, 48 h
[4] = system: A549; assay: Cytotoxicity against human A549 cells after 48 hrs by MTT assay; type: functional; details: A549, 48 h
[5] = system: HT-29; assay: Cytotoxicity against human HT-29 cells after 48 hrs by MTT assay; type: functional; details: HT-29, 48 h, read-out: LC50 (the source's name)
[6] = system: A549; assay: Induction of apoptosis in human A549 cells at 50 uM after 48 hrs by propidium iodide staining; type: functional, cell-based
[7] = system: A549; assay: Cell cycle arrest in human A549 cells assessed as increase in accumulation at G1 phase at […] after 48 hrs by flow cytometry; type: functional, cell-based
[8] = system: A549; assay: Induction of DNA cleavage in human A549 cells assessed as H2AX phosphorylation at 50 uM after 24 hrs by Western blot; type: functional, cell-based
[9] = system: A549; assay: Induction of apoptosis in human A549 cells assessed as AKT signaling pathway activation at 50 uM after 24 hrs by Western blot; type: functional, cell-based
[10] = system: A549; assay: Induction of DNA cleavage in human A549 cells assessed as p53 Ser15 phosphorylation at 50 uM after 24 hrs by Western blot; type: functional, cell-based
[11] = system: A549; assay: Induction of apoptosis in human A549 cells assessed as p38 activation at 50 uM after 24 hrs by Western blot; type: functional, cell-based
[12] = system: A549; assay: Induction of apoptosis in human A549 cells assessed as JNK activation at 50 uM after 24 hrs by Western blot; type: functional, cell-based
[13] = system: A549; assay: Cell cycle arrest in human A549 cells assessed as decrease in accumulation at G2/M phase at […] after 48 hrs by flow cytometry; type: functional, cell-based
[14] = system: A549; assay: Induction of DNA cleavage in human A549 cells assessed as CHK2 Ser19 phosphorylation at 50 uM after 24 hrs by Western blot; type: functional, cell-based
[15] = system: A549; assay: Cell cycle arrest in human A549 cells assessed as decrease in accumulation at G1 phase at […] after 48 hrs by flow cytometry; type: functional, cell-based
[16] = system: MDA-MB-231; assay: Cytotoxicity against human MDA-MB-231 cells after 48 hrs by MTT assay; type: functional; details: MDA-MB-231, 48 h, read-out: LC50 (the source's name)

Structure (SMILES) | GI50 [1] [µM] | GI50 [2] [µM] | GI50 [3] [µM] | TGI [3] [µM] | LC50 [4] [µM] | TGI [2] [µM] | CC50 [5] [µM] | Activity [6] | Activity [7] | Activity [8] | Activity [9] | Activity [10] | Activity [11] | Activity [12] | Activity [13] | Activity [14] | TGI [1] [µM] | Activity [15] | CC50 [16] [µM]
COc1c(C)c(OC)c(OC)c2c1C=C1CN(C)CC(=O)N1[C@H]2CN1Cc2ccccc2C1=O | 11.9 | 3.67 |  |  |  |  |  |  |  |  |  |  |  |  |  |  |  |  | 
COc1c(C)c(OC)c(OC)c2c1C[C@H]1CNCC(=O)N1[C@H]2COCc1ccccc1 (relative stereo) |  |  | 13.4 | > 23.4 | > 23.4 |  |  |  |  |  |  |  |  |  |  |  |  |  | 
COc1c(C)c(OC)c(OC)c2c1C[C@H]1CN(C)CC(=O)N1[C@H]2COCc1ccccc1 (relative stereo) |  |  | 12.7 | > 22.7 | > 22.7 |  |  |  |  |  |  |  |  |  |  |  |  |  | 
COc1c(C)c(OC)c(OC)c2c1C[C@@H]1CN(C(=O)OC(C)C)CC(=O)N1[C@H]2COCc1ccccc1 (relative stereo) |  | 10.5 | 8.19 | 16.8 |  |  |  |  |  |  |  |  |  |  |  |  |  |  | 
COc1c(C)c(OC)c(OC)c2c1C[C@H]1CN(C(=O)OC(C)C)CC(=O)N1[C@H]2COCc1ccccc1 (relative stereo) | 1.09 | 0.195 | 0.449 | 1.89 |  | 0.273 | 0.527 |  |  |  |  |  |  |  |  |  |  |  | 
COc1c(C)c(OC)c(OC)c2c1C[C@H]1CN(C(=O)OC(C)C)CC(=O)N1[C@H]2COC(=O)/C=C/c1ccccc1 (relative stereo) |  | 9.23 | 9.05 |  |  |  |  | Active | Active | inactive | inactive | inactive | inactive | inactive | Active | inactive |  |  | 
COc1c(C)c(OC)c(OC)c2c1C[C@H]1[C@@H](O)N(C(=O)OC(C)C)CC(=O)N1[C@H]2COCc1ccccc1 (relative stereo) | 9.27 | 8.32 | 5.68 | 11.7 | 17.4 | 9.84 |  | Active |  | inactive | inactive | inactive | inactive | inactive | Active | inactive | 15.3 | Active | 
COc1c(C)c(OC)c(OC)c2c1C[C@H]1[C@H](C#N)N3C([C@@H]4O[C@H]5c6ccccc6[C@H](C#N)N5C[C@H]3c3c(OC)c(OC)c(C)c(OC)c34)[C@@H]2N1C (relative stereo) | 11.4 | 7.35 | 11.4 | 12 | 12.7 | 8.22 | 10.2 |  |  | inactive | inactive | inactive | inactive | inactive |  | inactive | 12 |  | 12.8
COc1c(C)c(OC)c2c(c1OC)[C@@H]1CN3C(=O)c4ccccc4[C@@H]3O[C@H]2C2=CN(C(=O)OC(C)C)CC(=O)N21 (relative stereo) |  | 10.4 | 2.91 |  |  |  |  |  |  |  |  |  |  |  |  |  |  |  | 
COc1c(C)c(OC)c(OC)c2c1C[C@H]1[C@@H](O)N(C(=O)OC(C)(C)C)CC(=O)N1[C@H]2COCc1ccccc1 (relative stereo) | 12 | 14.4 | 4.79 | 17.5 | > 18.4 | > 18.4 | > 18.4 |  |  |  |  |  |  |  |  |  | > 18.4 |  | > 18.4
COc1cc2c(cc1O)CCN[C@]21CS[C@@H]2c3c(OC(C)=O)c(C)c4c(c3[C@H](COC1=O)N1[C@@H]2[C@H]2c3c(cc(C)c(OC)c3O)C[C@@H]([C@@H]1O)N2C)OCO4 [TRABECTEDIN] | 0.0551 | 0.0517 | 0.125 | 0.131 |  | 0.063 |  |  |  |  |  |  |  |  |  |  | 0.0578 |  | 
